Laboratory results published in publication PMC5218480 (PLoS ONE, 2017).

Test system: MV-4-11 cells
Assay: Gene expression microarray analysis (Affymetrix PrimeView) and GSEA
Format: cell-based, human
Parameters: RFU PODN (11730768_x_at) / Fold change /veh PODN (11730768_x_at) / RFU LINC00158 (11744669_a_at) / Fold change /veh LINC00158 (11744669_a_at) / RFU DUSP10 (11751237_a_at) / Fold change /veh DUSP10 (11751237_a_at) / RFU ID3 (11757404_x_at) / Fold change /veh ID3 (11757404_x_at) / RFU PLEKHG5 (11737974_s_at) / Fold change /veh PLEKHG5 (11737974_s_at) / RFU LRRC4B (11730491_at) / Fold change /veh LRRC4B (11730491_at) / RFU GIMAP4 (11747438_a_at) / Fold change /veh GIMAP4 (11747438_a_at) / RFU KRT8 (11758183_x_at) / Fold change /veh KRT8 (11758183_x_at) / RFU CNN1 (11734310_a_at) / Fold change /veh CNN1 (11734310_a_at) / RFU VPS37D (11726825_at) / Fold change /veh VPS37D (11726825_at) / RFU C10orf10 (11716522_x_at) / Fold change /veh C10orf10 (11716522_x_at) / RFU KIR2DL2 /// KIR2DL4 /// KIR2DL5A /// KIR2DL5B /// KIR2DS1 /// KIR2DS2 /// KIR2DS3 /// KIR2DS4 /// KIR3DL3 /// KIR3DL3 /// KIR3DS1 (11738374_at) / Fold change /veh KIR2DL2 /// KIR2DL4 /// KIR2DL5A /// KIR2DL5B /// KIR2DS1 /// KIR2DS2 /// KIR2DS3 /// KIR2DS4 /// KIR3DL3 /// KIR3DL3 /// KIR3DS1 (11738374_at) / RFU C1QL1 (11718748_at) / Fold change /veh C1QL1 (11718748_at) / RFU TMPRSS4 (11747572_a_at) / Fold change /veh TMPRSS4 (11747572_a_at) / RFU HAMP (11756126_x_at) / Fold change /veh HAMP (11756126_x_at) / RFU RNFT2 (11725882_a_at) / Fold change /veh RNFT2 (11725882_a_at) / RFU NR4A2 (11747474_a_at) / Fold change /veh NR4A2 (11747474_a_at) / RFU ABCC12 (11746883_a_at) / Fold change /veh ABCC12 (11746883_a_at) / RFU TMEM136 (11760407_x_at) / Fold change /veh TMEM136 (11760407_x_at) / RFU CLDN22 /// WWC2 (11732394_at) / Fold change /veh CLDN22 /// WWC2 (11732394_at) / RFU HLA-DPB1 (11760878_x_at) / Fold change /veh HLA-DPB1 (11760878_x_at) / RFU SPINT1 (11716480_a_at) / Fold change /veh SPINT1 (11716480_a_at) / RFU GAP43 (11754022_s_at) / Fold change /veh GAP43 (11754022_s_at) / RFU A4GNT (11735810_at) / Fold change /veh A4GNT (11735810_at) / RFU PRB3 (11715151_x_at) / Fold change /veh PRB3 (11715151_x_at) / RFU TUBB4B (11761932_at) / Fold change /veh TUBB4B (11761932_at) / RFU CAPN14 (11732068_a_at) / Fold change /veh CAPN14 (11732068_a_at) / RFU TMCC2 (11721928_a_at) / Fold change /veh TMCC2 (11721928_a_at) / RFU IRGQ (11745062_a_at) / Fold change /veh IRGQ (11745062_a_at) / RFU FAM174B (11720279_a_at) / Fold change /veh FAM174B (11720279_a_at) / RFU TMPRSS4 (11748680_a_at) / Fold change /veh TMPRSS4 (11748680_a_at) / RFU FAM212B (11763350_a_at) / Fold change /veh FAM212B (11763350_a_at) / RFU PLEKHG5 (11743358_a_at) / Fold change /veh PLEKHG5 (11743358_a_at) / RFU ZSCAN30 (11745921_a_at) / Fold change /veh ZSCAN30 (11745921_a_at) / RFU CMKLR1 (11741424_a_at) / Fold change /veh CMKLR1 (11741424_a_at) / RFU LOC101060620 /// MAPK8IP1 (11723275_at) / Fold change /veh LOC101060620 /// MAPK8IP1 (11723275_at) / RFU SPTSSB (11747773_x_at) / Fold change /veh SPTSSB (11747773_x_at) / RFU PRSS12 (11739890_at) / Fold change /veh PRSS12 (11739890_at) / RFU BIN1 (11741810_x_at) / Fold change /veh BIN1 (11741810_x_at) / RFU WNT11 (11732464_a_at) / Fold change /veh WNT11 (11732464_a_at) / RFU C10orf10 (11716521_a_at) / Fold change /veh C10orf10 (11716521_a_at) / RFU C5orf56 (11738089_at) / Fold change /veh C5orf56 (11738089_at) / RFU CYB561 (11721691_x_at) / Fold change /veh CYB561 (11721691_x_at) / RFU ANKRD19P (11752326_a_at) / Fold change /veh ANKRD19P (11752326_a_at) / RFU OR2T12 /// OR2T33 /// OR2T8 (11738714_s_at) / Fold change /veh OR2T12 /// OR2T33 /// OR2T8 (11738714_s_at) / RFU VCAN (11748164_a_at) / Fold change /veh VCAN (11748164_a_at) / RFU JSRP1 (11732532_at) / Fold change /veh JSRP1 (11732532_at) / RFU KRTAP10-11 (11738290_x_at) / Fold change /veh KRTAP10-11 (11738290_x_at) / RFU MYO3A (11730013_a_at) / Fold change /veh MYO3A (11730013_a_at) / RFU EBF3 (11725865_a_at) / Fold change /veh EBF3 (11725865_a_at) / RFU CAMK2N1 (11719241_x_at) / Fold change /veh CAMK2N1 (11719241_x_at) / RFU C5orf56 (11738088_a_at) / Fold change /veh C5orf56 (11738088_a_at) / RFU OLFML3 (11715873_a_at) / Fold change /veh OLFML3 (11715873_a_at) / RFU LOC100653217 /// NTM (11731650_a_at) / Fold change /veh LOC100653217 /// NTM (11731650_a_at) / RFU MAPK11 (11762145_a_at) / Fold change /veh MAPK11 (11762145_a_at) / RFU FIZ1 (11724087_x_at) / Fold change /veh FIZ1 (11724087_x_at) / RFU OASL (11726364_x_at) / Fold change /veh OASL (11726364_x_at) / RFU SOX15 (11748057_x_at) / Fold change /veh SOX15 (11748057_x_at) / RFU CD79A (11719716_a_at) / Fold change /veh CD79A (11719716_a_at) / RFU HIST1H1D (11736915_at) / Fold change /veh HIST1H1D (11736915_at) / RFU CASKIN2 (11723855_a_at) / Fold change /veh CASKIN2 (11723855_a_at) / RFU LOC730098 (11760151_x_at) / Fold change /veh LOC730098 (11760151_x_at) / RFU OR4N2 (11742367_at) / Fold change /veh OR4N2 (11742367_at) / RFU PRRT2 (11749266_a_at) / Fold change /veh PRRT2 (11749266_a_at) / RFU SNX32 (11753110_a_at) / Fold change /veh SNX32 (11753110_a_at) / RFU CDHR5 (11726645_a_at) / Fold change /veh CDHR5 (11726645_a_at) / RFU RCAN1 (11760418_a_at) / Fold change /veh RCAN1 (11760418_a_at) / RFU FAM167A (11723789_a_at) / Fold change /veh FAM167A (11723789_a_at) / RFU FAM26E (11764081_at) / Fold change /veh FAM26E (11764081_at) / RFU ISYNA1 (11749810_s_at) / Fold change /veh ISYNA1 (11749810_s_at) / RFU ACY1 (11761880_at) / Fold change /veh ACY1 (11761880_at) / RFU 11764098_at / Fold change /veh 11764098_at / RFU SAMD14 (11745864_x_at) / Fold change /veh SAMD14 (11745864_x_at) / RFU NPB (11741838_a_at) / Fold change /veh NPB (11741838_a_at) / RFU TMPRSS6 (11731388_a_at) / Fold change /veh TMPRSS6 (11731388_a_at) / RFU KRTAP10-2 (11738614_at) / Fold change /veh KRTAP10-2 (11738614_at) / RFU ARHGAP8 /// PRR5-ARHGAP8 (11727945_x_at) / Fold change /veh ARHGAP8 /// PRR5-ARHGAP8 (11727945_x_at) / RFU KRTAP5-7 /// NADSYN1 (11734609_at) / Fold change /veh KRTAP5-7 /// NADSYN1 (11734609_at) / RFU RASL12 (11751679_a_at) / Fold change /veh RASL12 (11751679_a_at) / RFU CDKN2B (11736163_a_at) / Fold change /veh CDKN2B (11736163_a_at) / RFU PRF1 (11729649_at) / Fold change /veh PRF1 (11729649_at) / RFU, ZNF638 /// ZNF638-IT1 / Fold change vs veh, ZNF638 /// ZNF638-IT1 / RFU, PANK3 / Fold change vs veh, PANK3 / RFU, SH3YL1 / Fold change vs veh, SH3YL1 / RFU, ZEB2 / Fold change vs veh, ZEB2 / RFU, NRIP1 / Fold change vs veh, NRIP1 / RFU, PTTG1IP / Fold change vs veh, PTTG1IP / RFU, CAPN2 / Fold change vs veh, CAPN2 / RFU, MED14 / Fold change vs veh, MED14 / RFU, SNORA58 / Fold change vs veh, SNORA58 / RFU, C1orf63 / Fold change vs veh, C1orf63 / RFU, LRRFIP1 / Fold change vs veh, LRRFIP1 / RFU, NDUFAF7 / Fold change vs veh, NDUFAF7 / RFU, SLC12A2 / Fold change vs veh, SLC12A2 / RFU, IBTK / Fold change vs veh, IBTK / RFU, ESF1 / Fold change vs veh, ESF1 / Fold change vs veh, TMEM50B / RFU, TAOK1 / Fold change vs veh, TAOK1 / RFU, ACBD3 / Fold change vs veh, ACBD3 / RFU, TMA16 / Fold change vs veh, TMA16 / RFU, RWDD3 / Fold change vs veh, RWDD3 / RFU, BCAT1 / Fold change vs veh, BCAT1 / RFU, EDEM3 / Fold change vs veh, EDEM3 / RFU, TMEM33 / Fold change vs veh, TMEM33 / RFU, WDR75 / Fold change vs veh, WDR75 / RFU, AHCTF1 / Fold change vs veh, AHCTF1 / RFU, TFRC / Fold change vs veh, TFRC / RFU, ZDHHC17 / Fold change vs veh, ZDHHC17 / RFU, NOM1 / Fold change vs veh, NOM1 / RFU, ARL8B / Fold change vs veh, ARL8B / RFU, ZBTB11 / Fold change vs veh, ZBTB11 / RFU, TAMM41 / Fold change vs veh, TAMM41 / RFU, KIAA1704 /// LOC100996395 / Fold change vs veh, KIAA1704 /// LOC100996395 / RFU, ING1 / Fold change vs veh, ING1 / RFU, TRMT61B / Fold change vs veh, TRMT61B / RFU, FUBP3 / Fold change vs veh, FUBP3 / RFU, TP53 / Fold change vs veh, TP53 / RFU, TNKS2 / Fold change vs veh, TNKS2 / RFU, ZFP14 / Fold change vs veh, ZFP14 / RFU, ACTR2 / Fold change vs veh, ACTR2 / RFU, PPP3R1 / Fold change vs veh, PPP3R1 / RFU, PIK3R1 / Fold change vs veh, PIK3R1 / RFU, HNRNPA1 / Fold change vs veh, HNRNPA1 / RFU, RNF170 / Fold change vs veh, RNF170 / RFU, ZNF28 / Fold change vs veh, ZNF28 / RFU, RNGTT / Fold change vs veh, RNGTT / RFU, OGT / Fold change vs veh, OGT / RFU, BRD1 / Fold change vs veh, BRD1 / RFU, MARS / Fold change vs veh, MARS / RFU, ZNF655 / Fold change vs veh, ZNF655 / RFU, FAHD1 / Fold change vs veh, FAHD1 / RFU, BDP1 / Fold change vs veh, BDP1 / RFU, LRRCC1 / Fold change vs veh, LRRCC1 / RFU, ARID1A / Fold change vs veh, ARID1A / RFU, ZNF146 / Fold change vs veh, ZNF146 / RFU, ZNF330 / Fold change vs veh, ZNF330 / RFU, GPN3 / Fold change vs veh, GPN3 / RFU, C9orf123 / Fold change vs veh, C9orf123 / RFU, N4BP2L2 / Fold change vs veh, N4BP2L2 / RFU, ARFIP1 / Fold change vs veh, ARFIP1 / RFU, FAM179B / Fold change vs veh, FAM179B / RFU, BCL10 / Fold change vs veh, BCL10 / RFU, UHRF1BP1L / Fold change vs veh, UHRF1BP1L / RFU, BET1 / Fold change vs veh, BET1 / RFU, CNOT2 / Fold change vs veh, CNOT2 / RFU, ZNF268 / Fold change vs veh, ZNF268 / Fold change vs veh, ZNF507 / RFU, DGCR2 / Fold change vs veh, DGCR2 / RFU, WDSUB1 / Fold change vs veh, WDSUB1 / Fold change vs veh, HSP90B1 /// MIR3652 / RFU, ADSS / Fold change vs veh, ADSS / RFU, GK / Fold change vs veh, GK / RFU, ZNF148 / Fold change vs veh, ZNF148 / RFU, TAF9 / Fold change vs veh, TAF9 / RFU, SLC1A5 / Fold change vs veh, SLC1A5 / RFU, SLMO2 / Fold change vs veh, SLMO2 / RFU, ABCC4 / Fold change vs veh, ABCC4 / RFU, LOC101060439 /// RAP1B / Fold change vs veh, LOC101060439 /// RAP1B / RFU, RFX7 / Fold change vs veh, RFX7 / RFU, GTPBP10 / Fold change vs veh, GTPBP10 / RFU, CNEP1R1 / Fold change vs veh, CNEP1R1 / RFU, BIVM-ERCC5 /// ERCC5 / Fold change vs veh, BIVM-ERCC5 /// ERCC5 / RFU, ILF3 / Fold change vs veh, ILF3 / RFU 11762660_at / Fold change /veh 11762660_at / RFU VCAN (11757783_s_at) / Fold change /veh VCAN (11757783_s_at) / RFU DDX43 (11728927_at) / Fold change /veh DDX43 (11728927_at) / RFU KRT8 (11758188_x_at) / Fold change /veh KRT8 (11758188_x_at) / RFU NKD1 (11759106_at) / Fold change /veh NKD1 (11759106_at) / RFU SRD5A1 (11742802_a_at) / Fold change /veh SRD5A1 (11742802_a_at) / RFU TPSAB1 /// TPSB2 (11721975_s_at) / Fold change /veh TPSAB1 /// TPSB2 (11721975_s_at) / RFU GSTM3 (11746129_a_at) / Fold change /veh GSTM3 (11746129_a_at) / RFU IL23R (11737362_x_at) / Fold change /veh IL23R (11737362_x_at) / RFU TMEM51 (11727254_a_at) / Fold change /veh TMEM51 (11727254_a_at) / RFU PIWIL2 (11732686_x_at) / Fold change /veh PIWIL2 (11732686_x_at) / RFU ORM1 (11744905_x_at) / Fold change /veh ORM1 (11744905_x_at) / RFU CCDC152 (11743942_at) / Fold change /veh CCDC152 (11743942_at) / RFU ECM1 (11717891_a_at) / Fold change /veh ECM1 (11717891_a_at) / RFU IL23R (11748794_a_at) / Fold change /veh IL23R (11748794_a_at) / RFU TNFAIP8L3 (11732012_x_at) / Fold change /veh TNFAIP8L3 (11732012_x_at) / RFU MBOAT4 (11741988_at) / Fold change /veh MBOAT4 (11741988_at) / RFU 11764193_at / Fold change /veh 11764193_at / RFU TMEM53 (11763286_at) / Fold change /veh TMEM53 (11763286_at) / RFU MAGEB2 (11727129_at) / Fold change /veh MAGEB2 (11727129_at) / RFU TMEM200A (11744735_a_at) / Fold change /veh TMEM200A (11744735_a_at) / RFU CCDC152 (11751479_a_at) / Fold change /veh CCDC152 (11751479_a_at) / RFU FAM211A (11726209_a_at) / Fold change /veh FAM211A (11726209_a_at) / RFU RGS16 (11746705_a_at) / Fold change /veh RGS16 (11746705_a_at) / RFU VCAN (11755009_s_at) / Fold change /veh VCAN (11755009_s_at) / RFU RHOB (11743442_s_at) / Fold change /veh RHOB (11743442_s_at) / RFU RGS16 (11720943_a_at) / Fold change /veh RGS16 (11720943_a_at) / RFU RGS16 (11720944_at) / Fold change /veh RGS16 (11720944_at) / RFU, VPS4B / Fold change vs veh, VPS4B / RFU, CREB1 / Fold change vs veh, CREB1 / RFU, DNAJC13 / Fold change vs veh, DNAJC13 / RFU, GNAQ / Fold change vs veh, GNAQ / RFU, CDK5R1 / Fold change vs veh, CDK5R1 / RFU, ZRANB3 / Fold change vs veh, ZRANB3 / RFU, CUL4A / Fold change vs veh, CUL4A / RFU, CCNY / Fold change vs veh, CCNY / RFU, UFL1 / Fold change vs veh, UFL1 / RFU, COG3 / Fold change vs veh, COG3 / RFU, DIAPH2 / Fold change vs veh, DIAPH2 / RFU, SKA2 / Fold change vs veh, SKA2 / RFU, AFF3 / Fold change vs veh, AFF3 / RFU, LMF1 / Fold change vs veh, LMF1 / RFU, IPO11 / Fold change vs veh, IPO11 / RFU, DFFB / Fold change vs veh, DFFB / RFU, FOXP1 / Fold change vs veh, FOXP1 / RFU, CARD8 / Fold change vs veh, CARD8 / RFU, STRN3 / Fold change vs veh, STRN3 / RFU, ADK / Fold change vs veh, ADK / RFU, RASSF2 / Fold change vs veh, RASSF2 / RFU, WIPF1 / Fold change vs veh, WIPF1 / RFU, LARP1B / Fold change vs veh, LARP1B / RFU, RASA1 / Fold change vs veh, RASA1 / RFU, RB1 / Fold change vs veh, RB1 / RFU, PPFIA1 / Fold change vs veh, PPFIA1 / RFU, MAT2A / Fold change vs veh, MAT2A / RFU, CCT5 / Fold change vs veh, CCT5 / RFU, WDR92 / Fold change vs veh, WDR92 / RFU, CUX1 / Fold change vs veh, CUX1 / RFU, TTC7A / Fold change vs veh, TTC7A / RFU, TMEM135 / Fold change vs veh, TMEM135 / RFU, DEPTOR / Fold change vs veh, DEPTOR / RFU, CPM / Fold change vs veh, CPM / RFU, DNAJB6 / Fold change vs veh, DNAJB6 / RFU, CACNA2D3 / Fold change vs veh, CACNA2D3 / RFU, DTX4 / Fold change vs veh, DTX4 / RFU, TFCP2 / Fold change vs veh, TFCP2 / RFU, GMCL1 /// GMCL1P1 / Fold change vs veh, GMCL1 /// GMCL1P1 / RFU, AEBP2 / Fold change vs veh, AEBP2 / RFU, SNHG1 /// SNORD22 /// SNORD25 /// SNORD26 /// SNORD27 /// SNORD28 /// SNORD29 /// SNORD31 / Fold change vs veh, SNHG1 /// SNORD22 /// SNORD25 /// SNORD26 /// SNORD27 /// SNORD28 /// SNORD29 /// SNORD31 / Fold change (Aza/veh), C12orf56 (ProbeSet 11735607_a_at) / Fold change (ACY-1035/veh), C12orf56 (ProbeSet 11735607_a_at) / Fold change (Aza/veh), FGFR1OP (ProbeSet 11751329_s_at) / Fold change (ACY-1035/veh), FGFR1OP (ProbeSet 11751329_s_at) / Fold change (Aza/veh), VPS36 (ProbeSet 11739960_a_at) / Fold change (ACY-1035/veh), VPS36 (ProbeSet 11739960_a_at) / RFU SYPL1 (11715823_x_at) / Fold change /veh SYPL1 (11715823_x_at) / RFU IGFBP7 (11715501_s_at) / Fold change /veh IGFBP7 (11715501_s_at) / RFU REEP3 (11722064_at) / Fold change /veh REEP3 (11722064_at) / RFU IGLL1 (11728026_x_at) / Fold change /veh IGLL1 (11728026_x_at): dose or concentration left out as unconfirmed
Details: ProbeSet 11725100_s_at; LIST B

SMILES: Nc1ncn([C@@H]2O[C@H](CO)[C@@H](O)[C@H]2O)c(=O)n1 [azacitidine]
- RFU, ESF1: 107.31 RFU
